The target in data set [1] is T1, Thromboxane A2 (TXA2) receptor (Oryctolagus cuniculus, UniProt Q6WQI8).
T1 construct: contraction by TXA2 mimics U-44069 or U-46619
T1 sequence (Q6WQI8 1-233): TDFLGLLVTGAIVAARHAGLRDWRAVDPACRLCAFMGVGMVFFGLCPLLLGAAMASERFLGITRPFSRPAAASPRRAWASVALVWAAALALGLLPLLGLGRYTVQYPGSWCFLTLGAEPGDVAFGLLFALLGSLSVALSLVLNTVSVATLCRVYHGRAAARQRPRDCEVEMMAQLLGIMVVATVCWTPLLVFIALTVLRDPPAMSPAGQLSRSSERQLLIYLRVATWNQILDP
In words: Thromboxane A2 (TXA2) receptor antagonism: inhibitory effect on contraction of rabbit aorta by TXA2-mimics. It counts as cell-based. The note with it: U-44069 (10^-7 M)-induced contraction. Here is the method: Thromboxane A2 (TXA2) receptor antagonism
Inhibitory effect on contraction of rabbit aorta by thromboxan A2 (TXA2)-mimics
Method: A spiral strip of the rabbit aorta (2-3 mm wide, about 3 cm long) was suspended in Krebs-Henseleit solution under the load of 2 g. The Krebs-Henseleit solution was saturated with a mixed gas of 95%O2 -5%CO2 and warmed at 37° C. Inhibition of the contraction of the vascular strip caused by a TXA2 mimic substance U-44069^1) (10^-7 M) or U-46619^2) (3×10 ^-8 M), by pretreatment with Compound No. 13 30 minutes before was studied.
1) U-44069: (5Z, 9α, 11α, 13E, 15S)-15-hydroxy-9,11-(epoxymethano)-prosta-5,13-dienoic acid (manufacturedby The Upjohn Company in U.S.A.)
2) U-46619: (5Z, 9α, 11α, […], 15S)-15-hydroxy-11,9-(epoxymethano)-prosta-5,13-dienoic acid (manufacturedby Cayman Chemical Company)
In Table 5, "*" represents addition of U-46619.

For data set [2], the system named is lipid peroxides production in rat brain homogenates. In words: Inhibitory action on lipid peroxides production in rat brain homogenates. The note with it: 10^-5 M. It counts as biochemical. Here is the method: Inhibitory action on lipid peroxides production in rat brain homogenates
Method: The male SD rat brain tissue was used as 5% homogenate in phosphate-buffered solution. After incubation of the homogenate for 1 hour at 37° C., the amount of lipid peroxides produced was determined by the thiobarbituric acid method according to the description of Ohkawa et al. (Analytical Biochemistry, 95: 551, 1979)
Test compounds were used as a solution of dimethylsulfoxide. The inhibitory action on lipid peroxide production was expressed as a % inhibition as compared with the amount of production in the vehicle group.

Data set [3] relates to U-46619 (TXA2 mimic)-induced broncho-constriction. Put plainly: Inhibitory effect on U-46619 (TXA2 mimic)-induced broncho-constriction in guinea pig. Format: in vivo. The settings on record: Cavia porcellus, iv; 0.31 mg/kg i.v., 9 minutes before U-46619; ** p < 0.01. Here is the method: Inhibitory effect on U-46619 (TXA2 mimic)-induced broncho-constrictionin guinea pig
Method: Eight male Hartley guinea pigs were used per one group. The guinea pig anesthetized with urethane (1.5 g/kg, i.p.) was fixed in a dorsal position, subjected to tracheotomy and connected to a respirator through a cannula. A side branch of the tracheal cannula was connected to a respirator (Harvard apparatus rodent respirator Type 680) at the rate of 70 strokes/min. and a constant volume of 3 to 5 ml.
Inflation pressure was kept constant at 10 cm H2 O.
After treatment with gallamine triethiodide (1 mg/kg, i.v.), U-46619 (10 μg/Kg) dissolved in a physiological saline solution was given through a carotid cannula and the airway resistance was measured by the overflow technique of Konzett-Rossler method (Konzett, H. and Rossler, R., Naunyn-Schmiedegerg's Arch, Exp. Path. Pharmak., 195, 71-74 (1940). A test compound was suspended in 5% gum arabic solution and was administered orally 1 hour before the treatment with U-46619.
Alternatively, a test compound was dissolved in aqueous 50% dimethylsulfoxide solution and administered interveneously in the dosage of 0.1 ml/100 g body weight 9 minutes before the treatment of U-46619.

In data set [4] the target is T2, specific [^3 H] U-46619 binding to guinea pig platelet membrane (Cavia porcellus, UniProt A0A286Y4I8).
T2 construct: Platelet membranes were prepared according to the following procedure; from tissue; host or cells: guinea pig platelet membranes
T2 sequence (A0A286Y4I8 1-347): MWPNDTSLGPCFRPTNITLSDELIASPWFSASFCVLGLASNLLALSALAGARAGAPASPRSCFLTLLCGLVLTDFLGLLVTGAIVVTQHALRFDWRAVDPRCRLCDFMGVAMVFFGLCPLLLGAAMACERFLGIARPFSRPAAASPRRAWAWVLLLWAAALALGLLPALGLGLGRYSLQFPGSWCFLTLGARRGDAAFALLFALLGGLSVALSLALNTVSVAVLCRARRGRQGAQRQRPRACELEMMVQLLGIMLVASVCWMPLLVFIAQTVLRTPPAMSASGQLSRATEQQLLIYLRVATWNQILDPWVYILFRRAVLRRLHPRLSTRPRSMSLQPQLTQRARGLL
Put plainly: Inhibition of specific [^3 H] U-46619 binding to guinea pig platelet membrane. The settings on record: [^3 H] U-46619, 25° C., 30 min; read-out: IC50 (Concentration for 50% inhibition). Here is the method:
Inhibition of specific [^3 H] U-46619 binding to guinea pig platelet membrane
Method: Blood from normal guinea pig was collected into 0.315% citrate solution containing aspirin (final concentration 1 mM) and was centrifuged at 3000 r.p.m. for […]. The PRP (platelet rich plasma) was centrifuged at 4800 r.p.m for 10 min. at 4° C. Platelet membranes were prepared according to the following procedure: In order to remove the residual plasma protein, the platelet pellet was washed once with 30 ml of buffer containing 25 mM Tris-HCl/5 mM MgCl2 (pH 7.4) and recentrifuged to pellet the platelets. The platelets were then resuspended in 20 ml of the same buffer, and the cells were disrupted by sonication. The sonication was performed on ice using a Kontes Sonicator (Vineland, N.J.). The platelets were sonicated for a total of 90 sec. with a 15 sec. burst followed by a 15 sec. intermission. The sonicated mixture was centrifuged at 100,000×g for 1 hour and the membrane fraction was suspended in the same buffer. The protein concentration was adjusted to 1 mg/ml.
The binding assay was performed at 25° C. for 30 min. One ml of the resuspended membrane fraction was incubated with […] of [^3 H] U-46619. The incubation mixture was filtered through a glass fiber membrane (GF/C, whatman) to separate the membrane bound from free [^3 H] U-46619. The membranes were quickly washed twice with 5 ml of cold buffer, mixed with 4 ml of ACS scintillation fluid and counted for [^3 H] U-46619.

A short description of data set [5]: Extension of bleeding time. Format: in vivo, rat. The note with it: one hour before. Here is the method:
Extension of bleeding time
Method: Test compounds were administered orally to rats one hour before the experiments. The rats were anesthetized and the tail was cut at 1.5 mm from the tip. Immediately, the tail was hung down into a physiological saline warmed at 37° C. The time required from initiation to stop of bleeding (bleeding time) was measured.

Data on 1 compound can be found in patent publication US5162571A, “Phenol derivatives, their production and use” (Takeda Chemical Industries, Ltd., priority 1987, dated 1992).

Usually inhibition stands for the change of the read-out against control, counted positive when it falls. A high value points to a strong effect. Usually inhibition in vivo stands for the drop in the measured response relative to a control, in per cent. Consider `Cc1c(C)c(Br)c(C)c(C(CCCCCC(=O)O)c2ccc(F)cc2)c1O` (centres unmarked) [Compound 12, 7-(5-bromo-2-hydroxy-3,4,6-trimethylphenyl)-7-(4-fluorophenyl)heptanoic acid], for which the inhibition at 10 µM in data set [1] (10^-5 M) is 100%. The inhibition at 1 µM in data set [1] (10^-6 M) is 79%. The compound also showed an inhibition at 0.1 µM in data set [1] (10^-7 M) of 12%. In data set [2], the “Inhibition (%)” value is 100%. In data set [3], this compound yielded an inhibition in vivo at 0.31 mg/kg of 96%. Moreover, in data set [4], the IC50 was determined as 200 nM. Also, the Bleeding time turned out to be 272 ± 52 s in data set [5] (10 mg/kg oral, control 173 ± 23, * p < 0.05) and 258 ± 14 s in data set [5] (30 mg/kg oral, control 164 ± 27, ** p < 0.01).
